Measurements: patent publication US4503256A, “Phlorophenone derivatives, processes for preparing such compounds, uses and pharmaceutical compositions of phlorophenone compounds” (Noristan Limited, priority 1981, dated 1985)
Values after ≈ are worked out from the molar mass of the structure shown. Like-named read-outs stand apart in the source and are kept apart here.

How the values were obtained:
St. PYOGENES = assay: Minimum Inhibitory Concentration (MIC), broth dilution in Brain Heart Infusion broth; assay type: cell-based; conditions: Streptococcus pyogenes, 37° C., 48 hours
Description: (§1) For testing against the bacteria, concentrations of each of the compounds were prepared in Brain Heart Infusion broth (Oxoid CM225) in two-fold steps from 1000 μg/ml to 1 μg/ml. Solutions containing 1000 μg/ml were prepared by dissolving 20 mg of each compound in 5 ml of acetone and this was then made up to 20 ml with Brain Heart Infusion Broth. Serial two-fold dilutions were then prepared in the broth down to 1 μg/ml.
(§2) For testing against the bacteria each of the prepared test concentrations and acetone controls prepared in Brain Heart Infusion were dispensed in 2 ml amounts for each organism. A growth control of 2 ml of Brain Heart Infusion was included in each series.
(§3) To each of the prepared sets of concentrations of each compound were added 0.1 ml aliquots of the organism suspensions prepared as described previously. All the bottles were incubated at 37° C. for 48 hours in the case of the bacteria and from 5 to 15 days for the fungi (until growth controls had grown in each case).
(§4) After incubation the broths were examined for evidence of growth. The lowest concentration of the test compound which prevented growth was recorded as the Minimum Inhibitory Concentration (MIC).

[1] = Acute oral toxicity in CD-1 mice; assay type: in vivo; conditions: mouse, in vivo, male and female CD-1 mice, dose levels 1000, 464, 215 and 100 mg/kg, 7 days observation
Description: Male and female CD-1 mice were fasted for 18 hours prior to the experiment, but water was available ad libitum except during the observation period. The test compounds were prepared in 1% tragacanth and were administered orally to groups of two male and two female mice.
All compounds were tested at dose levels of 1000, 464, 215 and 100 mg/kg. Immediately after dosing, the mice were replaced in their "home" cage and were observed daily for 7 days post dose and any mortalities recorded.
The acute toxicities, as determined by the above procedure, of a number of representative compounds are given in the accompanying table.

S. AUREUS = assay: Minimum Inhibitory Concentration (MIC), broth dilution in Brain Heart Infusion broth; assay type: cell-based, Staphylococcus aureus; conditions: Staphylococcus aureus, read-out: MIC S. AUREUS
Description: as §1, §2, §3, §4

Tr. MENTAGROPHYTES = assay: Minimum Inhibitory Concentration (MIC), dilution in Sabouraud liquid medium; assay type: cell-based; conditions: Trichophyton mentagrophytes, 37° C., 5 to 15 days
Description: (§5) For testing against the fungi, concentrations of each of the compounds were prepared in Sabouraud liquid medium in two-fold steps from 100 μg/ml to 0.1 μg/ml. 500 μg/ml solutions were prepared by dissolving 10 mg in 5 ml of acetone, made up to 20 ml with Sabouraud liquid medium. 4 ml of the 500 μg/ml concentration was then made up to 20 ml with Sabouraud liquid medium to give a concentration of 100 μg/ml. Serial two-fold dilutions were prepared from this in the same medium down to 0.1 μg/ml.
(§6) For the fungi the same procedure was followed using the concentrations made up in Sabouraud liquid medium. The Nystatin concentrations were also dispensed in 2 ml amounts for each organism. Growth controls of Sabouraud liquid medium were included in each series.
as §3, §4

Tr. RUBRUM = assay: as above; assay type: cell-based; conditions: Trichophyton rubrum, 37° C., 5 to 15 days
Description: as §5, §6, §3, §4

Mic. CANIS = assay: as above; assay type: cell-based; conditions: Microsporum canis, 37° C., 5 to 15 days
Description: as §5, §6, §3, §4

Sp. SCHENKII = assay: as above; assay type: cell-based; conditions: 37° C., 5 to 15 days
Description: as §5, §6, §3, §4

C. ALBICANS = assay: as above; assay type: cell-based; conditions: Candida albicans, 37° C., 5 to 15 days
Description: as §5, §6, §3, §4

[2] = 37° C., 48 hours, Brain Heart Infusion broth

Row | Compound | MIC (St. PYOGENES) [µg/mL] | LD50 at 168 h [1] [mg/kg] | MIC (S. AUREUS; [2]) [µg/mL] | MIC (Tr. MENTAGROPHYTES) [µg/mL] | MIC (Tr. RUBRUM) [µg/mL] | MIC (Mic. CANIS) [µg/mL] | MIC (Sp. SCHENKII) [µg/mL] | MIC (C. ALBICANS) [µg/mL] | MIC (S. AUREUS; 48 h) [µg/mL]
1 | CCCC(=O)c1c(O)cc(O)c(C(=O)CCC)c1O [Compound 1, 2,4-Dibutyrylphloroglucinol] | 1 (≈ 3.76 µM) | > 1000 | 2 (≈ 7.51 µM) | 6 (≈ 22.5 µM) | 6 (≈ 22.5 µM) | 3 (≈ 11.3 µM) | 6 (≈ 22.5 µM) | 13 (≈ 48.8 µM) | –
2 | CCC(=O)c1c(O)cc(O)c(CC=C(C)C)c1O [Compound 2, 2-Propionyl-4-(3-methylbuten-2-yl)phloroglucinol] | 8 (≈ 32 µM) | > 1000 | 125 (≈ 499 µM) | 25 (≈ 99.9 µM) | 13 (≈ 51.9 µM) | 13 (≈ 51.9 µM) | 25 (≈ 99.9 µM) | 50 (≈ 200 µM) | –
3 | CCCCC(=O)c1c(O)cc(O)c(CC=C(C)C)c1O [Compound 4, 2-Valeryl-4-(3-methylbuten-2-yl)phloroglucinol] | 16 (≈ 57.5 µM) | > 1000 | 64 (≈ 230 µM) | 13 (≈ 46.7 µM) | 13 (≈ 46.7 µM) | 13 (≈ 46.7 µM) | 25 (≈ 89.8 µM) | 25 (≈ 89.8 µM) | –
4 | CCCCCC(=O)c1c(O)cc(O)c(CC=C(C)C)c1O [Compound 5, 2-Caproyl-4-(3-methylbuten-2-yl)phloroglucinol] | 4 (≈ 13.7 µM) | > 1000 | 8 (≈ 27.4 µM) | 6 (≈ 20.5 µM) | 3 (≈ 10.3 µM) | 1.6 (≈ 5.47 µM) | 13 (≈ 44.5 µM) | 13 (≈ 44.5 µM) | –
5 | CC(C)=CCc1c(O)cc(O)c(C(=O)Cc2ccccc2)c1O [Compound 6, 2Phenylacetyl-4-(3-methylbuten-2-yl)phloroglucinol] | 8 (≈ 25.6 µM) | > 1000 | 250 (≈ 800 µM) | 100 (≈ 320 µM) | 25 (≈ 80 µM) | 50 (≈ 160 µM) | 50 (≈ 160 µM) | > 100 | –
6 | CC(C)=CCc1c(O)cc(O)c(C(=O)CCC(C)C)c1O [Compound 7, 2-Isocaproyl-4-(3-methylbuten-2-yl)phloroglucinol] | 8 (≈ 27.4 µM) | 1000 | 16 (≈ 54.7 µM) | 6 (≈ 20.5 µM) | 6 (≈ 20.5 µM) | 6 (≈ 20.5 µM) | 25 (≈ 85.5 µM) | 25 (≈ 85.5 µM) | –
7 | CC(C)=CCc1c(O)cc(O)c(C(=O)C2CCCCC2)c1O [Compound 8, 2-Hexahydrobenzoyl-4-(3-methylbuten-2-yl)phloroglucinol] | 8 (≈ 26.3 µM) | > 1000 | 32 (≈ 105 µM) | 6 (≈ 19.7 µM) | 6 (≈ 19.7 µM) | 6 (≈ 19.7 µM) | 13 (≈ 42.7 µM) | 13 (≈ 42.7 µM) | –
8 | CC(C)=CCc1c(O)cc(O)c(C(=O)C2CCCC2)c1O [Compound 9, 2-(2-Cyclopentyl-1-oxo)-4-(3-methylbuten-2-yl)phloroglucinol] | 8 (≈ 27.6 µM) | < 100 | – | 6.2 (≈ 21.4 µM) | 3.1 (≈ 10.7 µM) | 1.6 (≈ 5.51 µM) | 6.2 (≈ 21.4 µM) | 6.2 (≈ 21.4 µM) | 32 (≈ 110 µM)
9 | CCCCCCCC(=O)c1c(O)cc(O)c(CC=C(C)C)c1O [Compound 11, 2-Octanoyl-4-(3-methylbuten-2-yl)phloroglucinol] | 2 (≈ 6.24 µM) | 597 | 64 (≈ 200 µM) | 100 (≈ 312 µM) | 50 (≈ 156 µM) | 50 (≈ 156 µM) | > 100 | 100 (≈ 312 µM) | –
10 | CC(C)=CCc1c(O)cc(O)c(C(=O)Cc2ccc(Cl)cc2)c1O [Compound 14, 2-(4-Chlorophenyl)acetyl-4-(3-methylbuten-2-yl)phloroglucinol] | 8 (≈ 23.1 µM) | 1000 | 16 (≈ 46.1 µM) | 100 (≈ 288 µM) | > 100 | 50 (≈ 144 µM) | 100 (≈ 288 µM) | 100 (≈ 288 µM) | –
11 | C=CCc1c(O)cc(O)c(C(=O)CC)c1O [Compound 15] | 125 (≈ 562 µM) | > 1000 | 250 (≈ 1120 µM) | 25 (≈ 112 µM) | 50 (≈ 225 µM) | 50 (≈ 225 µM) | 50 (≈ 225 µM) | 100 (≈ 450 µM) | –
12 | C=CCc1c(O)cc(O)c(C(=O)CCCC)c1O [Compound 17] | 16 (≈ 63.9 µM) | > 1000 | 64 (≈ 256 µM) | 13 (≈ 51.9 µM) | 13 (≈ 51.9 µM) | 6 (≈ 24 µM) | 25 (≈ 99.9 µM) | 25 (≈ 99.9 µM) | –
13 | C=CCc1c(O)cc(O)c(C(=O)CCCCC)c1O [Compound 18] | 8 (≈ 30.3 µM) | > 1000 | 16 (≈ 60.5 µM) | 6 (≈ 22.7 µM) | 13 (≈ 49.2 µM) | 6 (≈ 22.7 µM) | 13 (≈ 49.2 µM) | 13 (≈ 49.2 µM) | –
14 | C=CCc1c(O)cc(O)c(C(=O)CCC(C)C)c1O [Compound 19] | 4 (≈ 15.1 µM) | > 1000 | 16 (≈ 60.5 µM) | 13 (≈ 49.2 µM) | 6 (≈ 22.7 µM) | 6 (≈ 22.7 µM) | 13 (≈ 49.2 µM) | 25 (≈ 94.6 µM) | –
15 | C=CCc1c(O)cc(O)c(C(=O)C2CCCCC2)c1O [Compound 20] | 8 (≈ 29 µM) | > 1000 | 32 (≈ 116 µM) | 13 (≈ 47 µM) | 25 (≈ 90.5 µM) | 13 (≈ 47 µM) | 25 (≈ 90.5 µM) | 25 (≈ 90.5 µM) | –
16 | C=CCc1c(O)cc(O)c(C(=O)Cc2ccc(Cl)cc2)c1O [Compound 23] | 8 (≈ 25.1 µM) | > 1000 | 32 (≈ 100 µM) | 13 (≈ 40.8 µM) | 13 (≈ 40.8 µM) | 6 (≈ 18.8 µM) | 25 (≈ 78.4 µM) | 13 (≈ 40.8 µM) | –
17 | CCCC(=O)c1c(O)cc(O)c(Cc2ccccc2)c1O [Compound 24, 2-Butyryl-4-benzylphloroglucinol] | 8 (≈ 27.9 µM) | 1000 | 16 (≈ 55.9 µM) | 13 (≈ 45.4 µM) | 6 (≈ 21 µM) | 13 (≈ 45.4 µM) | 25 (≈ 87.3 µM) | 25 (≈ 87.3 µM) | –
18 | CC(C)CCC(=O)c1c(O)cc(O)c(Cc2ccccc2)c1O [Compound 25, 2-Isocaproyl-4-benzylphloroglucinol] | 8 (≈ 25.4 µM) | 1000 | 16 (≈ 50.9 µM) | 3 (≈ 9.54 µM) | 6 (≈ 19.1 µM) | 6 (≈ 19.1 µM) | 25 (≈ 79.5 µM) | 13 (≈ 41.4 µM) | –
19 | CCCCCCCCC(=O)c1c(O)cc(O)c(Cc2ccccc2)c1O [Compound 27, 2-Nonanoyl-4-benzylphloroglucinol] | 1 (≈ 2.81 µM) | > 1000 | – | 5 (≈ 14 µM) | > 100 | 50 (≈ 140 µM) | 50 (≈ 140 µM) | 100 (≈ 281 µM) | 2 (≈ 5.61 µM)
20 | CCCC(=O)c1c(O)cc(O)c2c1OC(C)(C)CC2 [Compound 30, 5,7-dihydroxy-2,2-dimethyl-8-butyryl chroman] | 32 (≈ 121 µM) | > 1000 | 32 (≈ 121 µM) | 13 (≈ 49.2 µM) | 13 (≈ 49.2 µM) | 6 (≈ 22.7 µM) | 25 (≈ 94.6 µM) | 25 (≈ 94.6 µM) | –
21 | CC(C)CCC(=O)c1c(O)cc(O)c2c1OC(C)(C)CC2 [Compound 31, 5,7-Dihydroxy-2,2-dimethyl-8-isocaproylchroman] | 8 (≈ 27.4 µM) | > 1000 | 16 (≈ 54.7 µM) | 6 (≈ 20.5 µM) | 25 (≈ 85.5 µM) | 13 (≈ 44.5 µM) | 6 (≈ 20.5 µM) | 100 (≈ 342 µM) | –
22 | CCCCCCCCC(=O)c1c(O)cc(O)c2c1OC(C)(C)CC2 [Compound 32, 5,7-Dihydroxy-2,2-dimethyl-8-nonanoyl chroman] | < 1 | > 1000 | 64 (≈ 191 µM) | > 100 | > 100 | 100 (≈ 299 µM) | 100 (≈ 299 µM) | 100 (≈ 299 µM) | –
23 | CC(C)CCC(=O)c1c(O)cc2c(c1O)CCC(C)(C)O2 [Compound 33, 5,7-dihydroxy-2,2-dimethyl-6-isocaproyl chroman] | 64 (≈ 219 µM) | > 1000 | 125 (≈ 428 µM) | > 100 | 25 (≈ 85.5 µM) | 100 (≈ 342 µM) | > 100 | 100 (≈ 342 µM) | –
24 | CCCCCCCCC(=O)c1c(O)cc2c(c1O)CCC(C)(C)O2 [Compound 34, 5,7-dihydroxy-2,2-dimethyl-6-nonanoyl chroman] | 4 (≈ 12 µM) | > 1000 | 500 (≈ 1490 µM) | > 100 | 100 (≈ 299 µM) | > 100 | > 100 | 100 (≈ 299 µM) | –
